From patent publication US20230110378A1, “MONOBACTAM COMPOUND AND USE THEREOF” (EVOPOINT BIOSCIENCES CO., LTD., priority 2019, published 2023)
Values after ≈ are worked out from the molar mass of the structure shown.

Key:
Test in all cases: Minimum inhibitory concentration (broth microdilution, CLSI)
Assay type in all cases: cell-based
[1] = system: Klebsiella pneumoniae HDBKP 30006; conditions: HDBKP30006
Description: (§1) 103 bacterial strains used for the minimum inhibitory concentration test were frozen in a −80° C. ULT freezer and thawed 2 days before use. A small amount of frozen microorganism bacteria were scraped using a sterile inoculating loop, streaked onto a suitable solid culture dish for inoculation, and then cultured for about 20 h at 35 t 2° C. in a normal incubator. • Proteus mirabilis HDBPM 40: MA, normal atmospheric environment • The remaining 102 strains of bacteria: TSA, normal atmospheric environment
(§2) 5-10 colonies with similar morphology were picked from the culture dish using a sterile inoculating loop and then re-streaked onto a corresponding solid culture dish. Then the dish was incubated in a normal incubator at 35 t 2° C. for about 20 h.
(§3) 5-10 single microbial colonies were picked from the solid culture dish, resuspended in 500 μL of sterile normal saline (0.9% NaCl), and adjusted to an OD600 of about 0.15 with a spectrophotometer.
(§4) The bacteria were then diluted 300-fold with 1.02×CAMHB to an inoculation concentration of 2×10^5 CFU/mL.
(§5) • There were a total of 3 assay plate patterns, one of which was used for each assay. • 8 rows of the assay plate (rows A-H) were for 8 test compounds, respectively. The highest test concentration of the compounds was 16, 32 or 64 μg/mL, and each compound was diluted 2-fold. • Growth control (GC): a medium containing microbial inoculum (1.02×CAMHB) and dimethylsulfoxide (DMSO) but no compound.
(§6) The test and reference compounds were dissolved in DMSO or H2O to prepare 6.4 mg/mL stock solutions. The stock solutions were diluted to prepare standby solutions with certain concentrations, and the volumes of the standby solutions were determined according to the experimental design. Corresponding volumes of the standby solutions were transferred to the starting wells of a dilution plate (A1-H1), and half the starting-well volume of DMSO to the other wells. Each compound was diluted 2-fold sequentially from column 1 to column 11 (e.g., transferring 30 μL of DMSO to columns 2-12 first, then pipetting 30 μL of the compounds from column 1 to column 2 and mixing them well, then pipetting 30 μL of the compounds from column 2 to column 3 and mixing them well, then pipetting 30 μL of the compounds from column 3 to column 4 and mixing them well, and so on to column 11).
(§7) 1 or 2 μL of the compounds and DMSO were transferred from the compound plate to corresponding wells of the assay plates.
(§8) 98 μL of corresponding bacterial inocula were added to the assay plates.
(§9) After addition, the assay plates were covered with sterile covers. The mixtures in the assay plates were centrifuged in a centrifuge at 800 rpm for 30 s, mixed well on a microplate shaker at 400 rpm for 1 min, and incubated in a normal incubator at 35 t 2° C. for 20-24 h.
(§10) The assay plates were placed on a plate reading device, and the speculum was adjusted to observe and record the growth condition of bacteria in each well. In the mean time, each assay plate was photographed with QCount system.
(§11) The minimum inhibitory concentration of each compound was recorded by reference to guidelines from the Clinical and Laboratory Standards Institute.
(§12) The minimum inhibitory concentrations of the compounds against experimental strains were tested in this study by reference to the medium microdilution method as indicated by the Clinical and Laboratory Standards Institute. Compounds were diluted two-fold in 96-well plates from the highest detection concentration of 16, 32 or 64 μg/mL. The bacterial inocula in the assay plates were thawed from corresponding medium plates and diluted in 1.02×CAMHB, while growth controls (GC wells) were set up in the assay plates. The minimum inhibitory concentration of each compound against different bacteria was observed and recorded after the assay plates were incubated in a normal incubator at 35 t 2° C. for about 20 h. The minimum inhibitory concentration values for the different compounds are listed in the list below.

[2] = system: Proteus mirabilis HDBPM 40; conditions: HDBPM40
Description: as §1, §2, §3, §4, §5, §6, §7, §8, §9, §10, §11, §12

[3] = system: Pseudomonas aeruginosa HDBPA 5679; conditions: HDBPA5679
Description: as §1, §2, §3, §4, §5, §6, §7, §8, §9, §10, §11, §12

[4] = system: Escherichia coli HDBEC 30048; conditions: HDBEC30048
Description: as §1, §2, §3, §4, §5, §6, §7, §8, §9, §10, §11, §12

[5] = system: Escherichia coli HDBEC 30016; conditions: HDBEC30016
Description: as §1, §2, §3, §4, §5, §6, §7, §8, §9, §10, §11, §12

[6] = system: Klebsiella pneumoniae HDBKP 9249; conditions: HDBKP9249
Description: as §1, §2, §3, §4, §5, §6, §7, §8, §9, §10, §11, §12

[7] = system: Enterobacter cloacae HDBECL 30030; conditions: HDBECL30030
Description: as §1, §2, §3, §4, §5, §6, §7, §8, §9, §10, §11, §12

[8] = system: Escherichia coli HDBEC 30008; conditions: HDBEC30008
Description: as §1, §2, §3, §4, §5, §6, §7, §8, §9, §10, §11, §12

[9] = system: Klebsiella pneumoniae HDBKP 9153; conditions: HDBKP9153
Description: as §1, §2, §3, §4, §5, §6, §7, §8, §9, §10, §11, §12

SMILES | MIC [1] [µg/mL] | MIC [2] [µg/mL] | MIC [3] [µg/mL] | MIC [4] [µg/mL] | MIC [5] [µg/mL] | MIC [6] [µg/mL] | MIC [7] [µg/mL] | MIC [8] [µg/mL] | MIC [9] [µg/mL]
CC(C)(O/N=C(\C(=O)N[C@@H]1C(=O)N(S(=O)(=O)O)[C@@H]1CNC(=O)c1cc([C@@H]2CCN(CCNc3ccc(O)c(O)c3Cl)C2)no1)c1csc(N)n1)C(=O)O [Compound I-36] | 8 to 16 (≈ 10 to 20 µM) | < 4 | < 4 | < 4 | 4 to 8 (≈ 5 to 10 µM) | < 4 | < 4 | < 4 | < 4
C[n+]1cc(-c2ncc(C(=O)NC[C@@H]3[C@H](NC(=O)/C(=N\OC(C)(C)C(=O)O)c4nsc(N)n4)C(=O)N3S(=O)(=O)O)s2)cn1CCCN [Compound I-16] | > 16 | < 4 | > 16 | > 16 | > 16 | 8 to 16 | > 16 | 8 to 16 | > 16
C[n+]1cc(-c2cc(C(=O)NC[C@@H]3[C@H](NC(=O)/C(=N\OC(C)(C)C(=O)O)c4csc(N)n4)C(=O)N3S(=O)(=O)O)on2)cn1CCCN [Compound I-1] | 4 to 8 | < 4 | > 16 | > 16 | > 16 | < 4 | < 4 | 4 to 8 | > 16
CC(C)(O/N=C(\C(=O)N[C@@H]1C(=O)N(S(=O)(=O)O)[C@@H]1CNC(=O)c1cnc([C@@H]2CC[N+](C)(C[C@H](N)CNC(=O)c3ccc(O)c(O)c3Cl)C2)s1)c1csc(N)n1)C(=O)O (stereo partly drawn) [Compound I-38] | 8 to 16 | < 4 | < 4 | < 4 | < 4 | 8 to 16 | < 4 | < 4 | < 4
C[N+]1(CCNC(=O)c2ccc(O)c(O)c2Cl)CC[C@@H](c2cc(C(=O)NC[C@@H]3[C@H](NC(=O)/C(=N\OC4(C(=O)O)CC4)c4csc(N)n4)C(=O)N3S(=O)(=O)O)on2)C1 (stereo partly drawn) [Compound I-24] | 8 to 16 | < 4 | < 4 | < 4 | 8 to 16 | < 4 | < 4 | < 4 | < 4
Nc1nc(/C(=N/OC2(C(=O)O)CC2)C(=O)N[C@@H]2C(=O)N(S(=O)(=O)O)[C@@H]2CNC(=O)c2cc([C@H]3CCN(C(=O)c4cc(=O)c(O)cn4O)C3)no2)cs1 [Compound I-25] | > 16 | < 4 | < 4 | < 4 | 4 to 8 (≈ 5.22 to 10.4 µM) | 4 to 8 (≈ 5.22 to 10.4 µM) | < 4 | < 4 | < 4
Cc1c(C(=O)NCCN2CC[C@@H](c3cc(C(=O)NC[C@@H]4[C@H](NC(=O)/C(=N\OC(C)(C)C(=O)O)c5csc(N)n5)C(=O)N4S(=O)(=O)O)on3)C2)n(O)c(C)c(O)c1=O [Compound I-45] | 8 to 16 (≈ 9.54 to 19.1 µM) | < 4 | < 4 | < 4 | 8 to 16 (≈ 9.54 to 19.1 µM) | 8 to 16 (≈ 9.54 to 19.1 µM) | < 4 | < 4 | < 4
C[n+]1cc(-c2ncc(C(=O)NC[C@@H]3[C@H](NC(=O)/C(=N\OC(C)(C)C(=O)O)c4csc(N)n4)C(=O)N3S(=O)(=O)O)s2)cn1CCCNC(=O)c1cc(=O)c(O)cn1O [Compound I-12] | 8 to 16 | < 4 | < 4 | < 4 | < 4 | 4 to 8 | < 4 | < 4 | < 4
C[n+]1cc(-c2ncc(C(=O)NC[C@@H]3[C@H](NC(=O)/C(=N\OC(C)(C)C(=O)O)c4nsc(N)n4)C(=O)N3S(=O)(=O)O)s2)cn1CC(N)CN (stereo partly drawn) [Compound I-15] | > 16 | < 4 | > 16 | > 16 | > 16 | > 16 | 4 to 8 | 4 to 8 | > 16
CC(C)(O/N=C(\C(=O)N[C@@H]1C(=O)N(S(=O)(=O)O)[C@@H]1CNC(=O)c1cc([C@@H]2CCNC2)no1)c1csc(N)n1)C(=O)O [Compound I-5] | > 16 | < 4 | > 16 | > 16 | > 16 | < 4 | < 4 | < 4 | > 16
CC(C)(O/N=C(\C(=O)N[C@@H]1C(=O)N(S(=O)(=O)O)[C@@H]1CNC(=O)c1cc([C@@H]2CCN(C(=O)c3ccc(O)c(O)c3F)C2)no1)c1csc(N)n1)C(=O)O [Compound I-8] | 4 to 8 (≈ 5.2 to 10.4 µM) | < 4 | < 4 | < 4 | < 4 | 4 to 8 (≈ 5.2 to 10.4 µM) | < 4 | < 4 | < 4
C[n+]1cc(C(=O)NC[C@@H]2[C@H](NC(=O)/C(=N\OC(C)(C)C(=O)O)c3csc(N)n3)C(=O)N2S(=O)(=O)O)sc1-c1cnn(CC(N)CN)c1 (stereo partly drawn) [Compound I-13] | 8 to 16 | < 4 | > 16 | > 16 | > 16 | < 4 | 4 to 8 | 8 to 16 | 4 to 8
CC(C)(O/N=C(\C(=O)N[C@@H]1C(=O)N(S(=O)(=O)O)[C@@H]1CNC(=O)c1cc(-c2cc[n+](CCN)cc2)no1)c1csc(N)n1)C(=O)O [Compound I-4] | > 16 | < 4 | > 16 | > 16 | > 16 | < 4 | 4 to 8 | 4 to 8 | > 16
CC(C)(O/N=C(\C(=O)N[C@@H]1C(=O)N(S(=O)(=O)O)[C@@H]1CNC(=O)c1cc([C@@H]2CCN(CCNC(=O)c3cc(=O)c(O)c[nH]3)C2)no1)c1csc(N)n1)C(=O)O [Compound I-39] | 8 to 16 (≈ 10.1 to 20.1 µM) | < 4 | < 4 | < 4 | > 16 | 8 to 16 (≈ 10.1 to 20.1 µM) | < 4 | < 4 | < 4
CC(C)(O/N=C(\C(=O)N[C@H]1C(=O)N(S(=O)(=O)O)[C@H]1CNC(=O)c1cc([C@@H]2CCN(C(=O)c3cc(=O)c(O)cn3O)C2)no1)c1nc(N)sc1Cl)C(=O)O [Compound I-26] | > 16 | 4 to 8 (≈ 4.99 to 9.97 µM) | > 16 | > 16 | > 16 | > 16 | > 16 | > 16 | > 16
CC(C)(O/N=C(\C(=O)N[C@H]1C(=O)N(S(=O)(=O)O)[C@H]1CNC(=O)c1cc([C@@H]2CCN(C(=O)c3ccc(O)c(O)c3Cl)C2)no1)c1csc(N)n1)C(=O)O [Compound I-18] | > 16 | < 4 | 4 to 8 (≈ 5.09 to 10.2 µM) | < 4 | 8 to 16 (≈ 10.2 to 20.4 µM) | > 16 | < 4 | < 4 | 4 to 8 (≈ 5.09 to 10.2 µM)
CC(C)(O/N=C(\C(=O)N[C@@H]1C(=O)N(S(=O)(=O)O)[C@@H]1CNC(=O)c1cnc([C@@H]2CCN(CCNC(=O)c3ccc(O)c(O)c3Cl)C2)s1)c1csc(N)n1)C(=O)O [Compound I-41] | < 4 | < 4 | < 4 | < 4 | < 4 | 4 to 8 (≈ 4.74 to 9.48 µM) | < 4 | < 4 | < 4
